Data on one compound can be found in patent EP4744649A1, “SUSTAINED-RELEASE INJECTABLE COMPOSITION FOR TREATING OR PREVENTING NEUROLOGICAL DISORDERS, AND METHOD FOR PREPARING SAME” (Inventage Lab Inc., priority 2023, dated 2025).

The test system of data set [1] is PTZ-induced seizure rat model. Description: PTZ (pentylenetetrazole)-induced epileptic seizure model: seizure intensity, grade distribution, mortality. It counts as in vivo, rats. The note with it: for seizure-induced mortality: 10 animals; for seizure intensity: 60 mg/head IP on D1 and D14 (G2). How it is done:
In order to evaluate the seizure-suppressing effect of administration of the microparticles of the present invention in an epilepsy-induced model, administration groups were set up as follows.
G3 and G4 were administered to rats at different doses using the above-described Example 7.
(§1) After the completion of acclimatization, the rats were divided into groups. On day 1 (D1), the test substances G1 to G4 were administered intraperitoneally and subcutaneously, and 30 minutes later, PTZ (pentylenetetrazole, Sigma, USA) dissolved in 0.9% sterile saline was administered intraperitoneally at a dose of 37.5 mg/kg to induce epileptic seizures. In the normal group, only the same amount of saline was administered. Then, PTZ was repeatedly administered at time points D2, D3, D5, D7, D14, D21, and D28 to induce epileptic seizures. The intensity of the seizures was graded and evaluated for 30 minutes immediately after PTZ administration at each time point according to the following criteria: [Table 7]

Data set [2] is described as follows: Body weight change in the PTZ seizure study. In kind it is in vivo, rats. The note with it: 60 mg/head IP (G2); difference not statistically significant. How it is done: as §1
During the test period, body weight continued to increase in all the groups without decrease.

For the compound `C=C(C)[C@@H]1CCC(C)=C[C@H]1c1c(O)cc(CCCCC)cc1O` [CBD solution, cannabidiol], the seizure-induced mortality result is given as “no deaths occurred” in data set [1] (60 mg/head IP (G2), until week 3) and “three animals died” in data set [1] (60 mg/head IP (G2), week 4). Also, the “individuals with severe seizures” value in data set [1] (60 mg/head IP (G2), week 2, at the time of additional administration) is 10%. Further, the “individuals with grade-5 seizures” value in data set [1] (60 mg/head IP (G2), week 4) is reported as “more than half of individuals”. In addition, the seizure intensity was 2.4 grade in data set [1] (day 1, stages 0 to 6); 3.9 grade in data set [1] (week 1); 2.9 grade in data set [1] (week 2, after additional administration); 4.9 grade in data set [1] (weeks 3 and 4). The weight gain entry in data set [2] is “slightly smaller than that in the other groups”.
